Results taken from US20250034150A1, “BTK INHIBITORS” (BIOGEN MA INC., priority 2021, published 2025).
pIC50: −log10 of the molar value. Like-named read-outs stand apart in the source and are kept apart here.

Columns and labels:
BTK = target: T1, BTK (Homo sapiens, UniProt Q06187); experiment: In Vitro BTK Kinase Assay: Btk-PolyGAT-LS Assay; type: biochemical; conditions: active BTK enzyme 0.25 nM, polyGAT 100 nM, 30 minutes, TRF readout; read-out: In Vitro BTK Kinase Assay IC50 Score
T1 construct: purchased Upstate 14-552
Protocol: The purpose of the BTK in vitro assay is to determine compound potency against BTK through the measurement of IC50. Compound inhibition is measured after monitoring the amount of phosphorylation of a fluorescein-labeled polyGAT peptide (Invitrogen PV3611) in the presence of active BTK enzyme (Upstate 14-552), ATP, and inhibitor. The BTK kinase reaction was done in a black 96 well plate (costar 3694). For a typical assay, a 24 μL aliquot of a ATP/peptide master mix (final concentration; ATP […], polyGAT 100 nM) in kinase buffer (10 mM Tris-HCl pH 7.5, 10 mM MgCl2, 200 μM […], 5 mM DTT, 0.01% Triton X-100, and 0.2 mg/ml casein) is added to each well. Next, […] of a 4-fold, 40× compound titration in 100% DMSO solvent is added, followed by adding 15 μL of BTK enzyme mix in 1× kinase buffer (with a final concentration of 0.25 nM). The assay is incubated for 30 minutes before being stopped with 28 μL of a 50 mM EDTA solution. Aliquots (5 uL) of the kinase reaction are transferred to a low volume white 384 well plate (Coming 3674), and 5 μL of a 2× detection buffer (Invitrogen PV3574, with 4 nM Tb—PY20 antibody, Invitrogen PV3552) is added. The plate is covered and incubated for 45 minutes at room temperature. Time resolved fluorescence (TRF) on Molecular Devices M5 (332 nm excitation; 488 nm emission; 518 nm fluorescein emission) is measured. IC50 values are calculated using a four parameter fit with 100% enzyme activity determined from the DMSO control and 0% activity from the EDTA control.

[1] = system: CD69 expression on CD19+ B cells in human whole blood; experiment: In Vitro whole blood CD69 Assay; type: cell-based; conditions: B-cell, read-out: In Vitro HWB CD69 Assay IC50 Score
Protocol: Human heparinized venous blood from health donors was aliquoted into 96-well plate and “spiked” with serial dilutions of formula I compounds in DMSO or with DMSO without drug. The final concentration of DMSO in all wells was 0.1%. The plate was incubated at 37° C. for 30 min. Drug-containing samples were stimulated with 0.1 μg/mL mouse anti-human IgD-dextran (1A62) or 20 μg/mL polyclonal rabbit F(ab′)2 anti-human IgD. Phosphate-buffered saline (PBS) was added to the negative control unstimulated sample and the plates were incubated overnight (18 to 22 hours) at 37° C. Cells were stained with fluorochrome-conjugated anti-CD19 and anti-CD69 antibodies. Lyse/fix solution was used to remove red blood cells by hypotonic lysis and to fix the remaining cells, which were then analyzed by flow cytometry. CD19+ B cells were gated and analyzed for CD69 expression.

[2] = human heparinized whole blood, anti-human IgD stimulation overnight, CD19+ B cells, flow cytometry

T1 sequence (Q06187 whole entry): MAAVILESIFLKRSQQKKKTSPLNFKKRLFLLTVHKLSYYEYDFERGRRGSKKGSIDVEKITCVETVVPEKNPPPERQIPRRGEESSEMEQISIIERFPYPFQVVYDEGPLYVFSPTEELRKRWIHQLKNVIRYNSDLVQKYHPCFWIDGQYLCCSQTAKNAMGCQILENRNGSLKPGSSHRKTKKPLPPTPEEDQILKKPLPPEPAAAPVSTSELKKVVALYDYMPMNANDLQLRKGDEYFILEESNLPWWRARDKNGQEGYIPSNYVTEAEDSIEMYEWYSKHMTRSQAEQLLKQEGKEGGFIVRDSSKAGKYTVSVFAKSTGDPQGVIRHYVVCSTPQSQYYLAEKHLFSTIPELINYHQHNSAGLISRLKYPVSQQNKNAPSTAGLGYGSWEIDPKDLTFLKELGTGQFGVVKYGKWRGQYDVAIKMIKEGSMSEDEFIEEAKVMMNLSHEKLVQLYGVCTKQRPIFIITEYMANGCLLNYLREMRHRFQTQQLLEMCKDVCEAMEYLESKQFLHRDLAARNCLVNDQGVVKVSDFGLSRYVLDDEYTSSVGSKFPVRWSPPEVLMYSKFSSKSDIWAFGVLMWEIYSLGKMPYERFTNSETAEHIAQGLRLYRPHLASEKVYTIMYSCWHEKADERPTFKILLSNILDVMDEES

SMILES | pIC50 (BTK) | pIC50 [1, 2] | pIC50 ([1]; Homo sapiens)
Cn1cc(-c2cn3nccc3c(-c3ccc(CNC(=O)c4nc(C(C)(C)C)no4)c(F)c3F)n2)cn1 [Example 89, 3-(tert-butyl)-N-(2,3-difluoro-4-(6-(1-methyl-1H-pyrazol-4-yl)pyrazolo[1,5-a]pyrazin-4-yl)benzyl)-1,2,4-oxadiazole-5-carboxamide] | > 9.00 |  | > 6.00
CN1CCN(c2cn3nccc3c(-c3ccc(CNC(=O)c4nc(C(C)(C)C)no4)c(F)c3)n2)CC1 [Example 118, 3-(tert-butyl)-N-(2-fluoro-4-(6-(4-methylpiperazin-1-yl)pyrazolo[1,5-a]pyrazin-4-yl)benzyl)-1,2,4-oxadiazole-5-carboxamide] | 8.00 to 9.00 | 5.00 to 6.00 | 
Cn1cc(-c2cn3nccc3c(-c3ccc(CNC(=O)c4coc(C(C)(C)C)n4)c(C(F)F)c3)n2)cn1 [Example 101, 2-(tert-butyl)-N-(2-(difluoromethyl)-4-(6-(1-methyl-1H-pyrazol-4-yl)pyrazolo[1,5-a]pyrazin-4-yl)benzyl)oxazole-4-carboxamide] | 8.00 to 9.00 | 5.00 to 6.00 | 
Cn1cc(-c2cc3nccn3c(-c3ccc(CNC(=O)c4nnc(C(C)(C)C)o4)cc3)n2)cn1 [Example 61, 5-(tert-butyl)-N-(4-(7-(1-methyl-1H-pyrazol-4-yl)imidazo[1,2-c]pyrimidin-5-yl)benzyl)-1,3,4-oxadiazole-2-carboxamide] | 6.00 to 8.00 | 5.00 to 6.00 | 
Cn1cc(-c2cc(-c3ccc(CNC(=O)c4noc(C(C)(C)C)n4)c(F)c3)c3ccnn3c2)cn1 [Example 68, 5-(tert-butyl)-N-(2-fluoro-4-(6-(1-methyl-1H-pyrazol-4-yl)pyrazolo[1,5-a]pyridin-4-yl)benzyl)-1,2,4-oxadiazole-3-carboxamide] | > 9.00 |  | > 6.00
C[C@H]1CN(c2nc(-c3cnn(C)c3)cn3nccc23)CC[C@@H]1CNC(=O)c1noc(C2(C)CC2)n1 (single isomer, unassigned) [Example 148] | 8.00 to 9.00 | 5.00 to 6.00 | 
Cn1cc(-c2cn3nccc3c(-c3ccc(CNC(=O)c4noc(C(C)(C)C)n4)cc3F)n2)cn1 [Example 83, 5-(tert-butyl)-N-(3-fluoro-4-(6-(1-methyl-1H-pyrazol-4-yl)pyrazolo[1,5-a]pyrazin-4-yl)benzyl)-1,2,4-oxadiazole-3-carboxamide] | 8.00 to 9.00 | > 6.00 | 
Cn1cc(-c2cn3nccc3c(-c3ccc(CNC(=O)c4cnn(C(C)(C)C)c4)cc3)n2)cn1 [Example 2, 1-(tert-butyl)-N-(4-(6-(1-methyl-1H-pyrazol-4-yl)pyrazolo[1,5-a]pyrazin-4-yl)benzyl)-1H-pyrazole-4-carboxamide] | 8.00 to 9.00 | > 6.00 | 
Cn1cc(-c2cn3ncnc3c(N3CCC(CNC(=O)c4nnn(C(C)(C)C)n4)CC3)n2)cn1 [Example 72, 2-(tert-butyl)-N-((1-(6-(1-methyl-1H-pyrazol-4-yl)-[1,2,4]triazolo[1,5-a]pyrazin-8-yl)piperidin-4-yl)methyl)-2H-tetrazole-5-carboxamide] | 8.00 to 9.00 | 5.00 to 6.00 | 
Cn1cc(-c2cn3nccc3c(N3CCC(CNC(=O)c4noc(C(C)(C)C)n4)CC3)n2)cn1 [Example 136, 5-(tert-butyl)-N-((1-(6-(1-methyl-1H-pyrazol-4-yl)pyrazolo[1,5-a]pyrazin-4-yl)piperidin-4-yl)methyl)-1,2,4-oxadiazole-3-carboxamide] | 8.00 to 9.00 |  | > 6.00
Cn1cc(-c2cn3nccc3c(N3CC[C@H](CNC(=O)c4cn(C(C)(C)C)nn4)[C@H](F)C3)n2)cn1 [Example 152, 1-(tert-butyl)-N-((3-fluoro-1-(6-(1-methyl-1H-pyrazol-4-yl)pyrazolo[1,5-a]pyrazin-4-yl)piperidin-4-yl)methyl)-1H-1,2,3-triazole-4-carboxamide] | 8.00 to 9.00 | 5.00 to 6.00 | 

More lines, main results first:

pIC50 (BTK) | pIC50 [1, 2] | SMILES | pIC50 ([1]; Homo sapiens)
8.00 to 9.00 | 5.00 to 6.00 | Cn1cc(-c2cn3nccc3c(-c3ccc(CNC(=O)c4noc(C(C)(C)C)n4)nc3)n2)cn1 [Example 116, 5-(tert-butyl)-N-((5-(6-(1-methyl-1H-pyrazol-4-yl)pyrazolo[1,5-a]pyrazin-4-yl)pyridin-2-yl)methyl)-1,2,4-oxadiazole-3-carboxamide] | 
8.00 to 9.00 | > 6.00 | Cn1cc(-c2cn3nccc3c(-c3ccc4c(c3)CN(CC(F)(F)F)CC[C@H]4NC(=O)c3cn(C(C)(C)C)nn3)n2)cn1 [Example 40, (R)-1-(tert-butyl)-N-(8-(6-(1-methyl-1H-pyrazol-4-yl)pyrazolo[1,5-a]pyrazin-4-yl)-2-(2,2,2-trifluoroethyl)-2,3,4,5-tetrahydro-1H-benzo[c]azepin-5-yl)-1H-1,2,3-triazole-4-carboxamide] | 
> 9.00 | > 6.00 | Cn1cc(-c2cn3nccc3c(-c3cc(F)c(CNC(=O)c4nc(C(C)(C)C)no4)cc3F)n2)cn1 [Example 94, 3-(tert-butyl)-N-(2,5-difluoro-4-(6-(1-methyl-1H-pyrazol-4-yl)pyrazolo[1,5-a]pyrazin-4-yl)benzyl)-1,2,4-oxadiazole-5-carboxamide] | 
> 9.00 | > 6.00 | Cn1cc(-c2cn3nccc3c(-c3ccc(CNC(=O)c4nnn(C(C)(C)C)n4)c(C(F)F)c3)n2)cn1 [Example 106, 2-(tert-butyl)-N-(2-(difluoromethyl)-4-(6-(1-methyl-1H-pyrazol-4-yl)pyrazolo[1,5-a]pyrazin-4-yl)benzyl)-2H-tetrazole-5-carboxamide] | 
8.00 to 9.00 | 5.00 to 6.00 | CC(C)CN1CCN(Cc2ccc(-c3nc(-c4cnn(C)c4)cn4nccc34)cc2F)C(=O)C1 [Example 34, 1-(2-fluoro-4-(6-(1-methyl-1H-pyrazol-4-yl)pyrazolo[1,5-a]pyrazin-4-yl)benzyl)-4-isobutylpiperazin-2-one] | 
> 9.00 | > 6.00 | Cn1cc(-c2cn3nccc3c(-c3ccc(CNC(=O)c4nc(C(C)(C)C)no4)c(C(F)F)c3)n2)cn1 [Example 100, 3-(tert-butyl)-N-(2-(difluoromethyl)-4-(6-(1-methyl-1H-pyrazol-4-yl)pyrazolo[1,5-a]pyrazin-4-yl)benzyl)-1,2,4-oxadiazole-5-carboxamide] | 
> 9.00 | 5.00 to 6.00 | Cn1cc(-c2cn3nccc3c(-c3ccc(CNC(=O)c4cnn(C(C)(C)C)n4)cc3)n2)cn1 [Example 21, 2-(tert-butyl)-N-(4-(6-(1-methyl-1H-pyrazol-4-yl)pyrazolo[1,5-a]pyrazin-4-yl)benzyl)-2H-1,2,3-triazole-4-carboxamide] | 
> 9.00 | > 6.00 | Cc1cc(-c2nc(-c3cnn(C)c3)cn3nccc23)ccc1CNC(=O)c1noc(C(C)(C)C)n1 [Example 80, 5-(tert-butyl)-N-(2-methyl-4-(6-(1-methyl-1H-pyrazol-4-yl)pyrazolo[1,5-a]pyrazin-4-yl)benzyl)-1,2,4-oxadiazole-3-carboxamide] | 
> 9.00 | > 6.00 | Cn1cc(-c2cn3nccc3c(-c3ccc(CNC(=O)c4nnc(C(C)(C)C)o4)c(C(F)F)c3)n2)cn1 [Example 102, 5-(tert-butyl)-N-(2-(difluoromethyl)-4-(6-(1-methyl-1H-pyrazol-4-yl)pyrazolo[1,5-a]pyrazin-4-yl)benzyl)-1,3,4-oxadiazole-2-carboxamide] | 
> 9.00 | > 6.00 | Cn1cc(-c2cn3nccc3c(-c3ccc4c(c3)CN(C3COC3)CC[C@H]4NC(=O)c3cn(C(C)(C)C)nn3)n2)cn1 [Example 39, 1-tert-butyl-N-[(5R)-8-[6-(1-methylpyrazol-4-yl)pyrazolo[1,5-a]pyrazin-4-yl]-2-(oxetan-3-yl)-1,3,4,5-tetrahydro-2-benzazepin-5-yl]triazole-4-carboxamide] | 
> 9.00 | > 6.00 | Cn1cc(-c2cn3nccc3c(-c3ccc(CNC(=O)c4cn(C(C)(C)C)nn4)c(F)c3)n2)cn1 [Example 9, 1-(tert-butyl)-N-(2-fluoro-4-(6-(1-methyl-1H-pyrazol-4-yl)pyrazolo[1,5-a]pyrazin-4-yl)benzyl)-1H-1,2,3-triazole-4-carboxamide] | 
